# Measurements from ChEMBL document CHEMBL5096240, “Discovery of Potent and Selective Inhibitors of Wild-Type and Gatekeeper Mutant Fibroblast Growth Factor Receptor (FGFR) 2/3” (J Med Chem, 2022).
# Active and inactive are the calls of the source. The rule behind the calls is not given here.
# Key:
# [1] = molecular target: Platelet-derived growth factor receptor beta (Homo sapiens, UniProt P09619); experiment: Inhibition of wild type partial length human PDGFRbeta (V582 to Y1009 residues) expressed in bacterial expression system using Ulight-p70S6K peptide substrate incubated for 90 mins in presence of ATP by HTRF assay
# Platelet-derived growth factor receptor beta, sequence (P09619 whole entry, the tested form may be a part): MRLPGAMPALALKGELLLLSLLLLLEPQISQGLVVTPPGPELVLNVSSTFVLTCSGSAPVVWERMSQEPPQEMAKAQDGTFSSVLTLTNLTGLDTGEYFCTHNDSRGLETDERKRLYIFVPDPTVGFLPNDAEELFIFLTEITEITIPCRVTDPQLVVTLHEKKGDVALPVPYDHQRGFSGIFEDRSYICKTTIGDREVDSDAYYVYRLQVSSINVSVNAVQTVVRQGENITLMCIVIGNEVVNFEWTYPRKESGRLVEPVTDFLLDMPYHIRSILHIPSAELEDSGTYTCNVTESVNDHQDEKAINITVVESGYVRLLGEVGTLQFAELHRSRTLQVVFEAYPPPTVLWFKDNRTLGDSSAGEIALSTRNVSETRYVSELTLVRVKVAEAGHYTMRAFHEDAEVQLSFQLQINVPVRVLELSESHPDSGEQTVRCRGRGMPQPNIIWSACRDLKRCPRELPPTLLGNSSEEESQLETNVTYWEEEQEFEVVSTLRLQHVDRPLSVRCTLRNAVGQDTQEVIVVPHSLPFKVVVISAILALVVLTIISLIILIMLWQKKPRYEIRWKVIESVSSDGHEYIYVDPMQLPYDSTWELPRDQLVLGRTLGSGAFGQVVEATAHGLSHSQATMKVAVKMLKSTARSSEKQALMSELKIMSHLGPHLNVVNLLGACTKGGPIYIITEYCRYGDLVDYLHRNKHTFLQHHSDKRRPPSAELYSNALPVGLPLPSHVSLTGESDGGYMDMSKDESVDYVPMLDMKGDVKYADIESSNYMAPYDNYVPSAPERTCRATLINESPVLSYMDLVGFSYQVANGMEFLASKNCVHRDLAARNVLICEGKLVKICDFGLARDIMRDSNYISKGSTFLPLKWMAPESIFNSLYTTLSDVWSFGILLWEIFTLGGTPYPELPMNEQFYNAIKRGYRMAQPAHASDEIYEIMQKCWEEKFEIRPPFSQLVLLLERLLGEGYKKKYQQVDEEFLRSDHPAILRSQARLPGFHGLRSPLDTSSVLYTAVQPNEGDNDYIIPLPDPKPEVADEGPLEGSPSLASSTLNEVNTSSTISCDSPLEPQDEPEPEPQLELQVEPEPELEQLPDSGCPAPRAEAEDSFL
# [2] = molecular target: Mast/stem cell growth factor receptor Kit (Homo sapiens, UniProt P10721); experiment: Inhibition of wild type partial length human KIT (I571 to D952 residues) expressed in bacterial expression system using Ulight-p70S6K peptide substrate incubated for 90 mins in presence of ATP by HTRF assay
# Mast/stem cell growth factor receptor Kit, sequence (P10721 whole entry, the tested form may be a part): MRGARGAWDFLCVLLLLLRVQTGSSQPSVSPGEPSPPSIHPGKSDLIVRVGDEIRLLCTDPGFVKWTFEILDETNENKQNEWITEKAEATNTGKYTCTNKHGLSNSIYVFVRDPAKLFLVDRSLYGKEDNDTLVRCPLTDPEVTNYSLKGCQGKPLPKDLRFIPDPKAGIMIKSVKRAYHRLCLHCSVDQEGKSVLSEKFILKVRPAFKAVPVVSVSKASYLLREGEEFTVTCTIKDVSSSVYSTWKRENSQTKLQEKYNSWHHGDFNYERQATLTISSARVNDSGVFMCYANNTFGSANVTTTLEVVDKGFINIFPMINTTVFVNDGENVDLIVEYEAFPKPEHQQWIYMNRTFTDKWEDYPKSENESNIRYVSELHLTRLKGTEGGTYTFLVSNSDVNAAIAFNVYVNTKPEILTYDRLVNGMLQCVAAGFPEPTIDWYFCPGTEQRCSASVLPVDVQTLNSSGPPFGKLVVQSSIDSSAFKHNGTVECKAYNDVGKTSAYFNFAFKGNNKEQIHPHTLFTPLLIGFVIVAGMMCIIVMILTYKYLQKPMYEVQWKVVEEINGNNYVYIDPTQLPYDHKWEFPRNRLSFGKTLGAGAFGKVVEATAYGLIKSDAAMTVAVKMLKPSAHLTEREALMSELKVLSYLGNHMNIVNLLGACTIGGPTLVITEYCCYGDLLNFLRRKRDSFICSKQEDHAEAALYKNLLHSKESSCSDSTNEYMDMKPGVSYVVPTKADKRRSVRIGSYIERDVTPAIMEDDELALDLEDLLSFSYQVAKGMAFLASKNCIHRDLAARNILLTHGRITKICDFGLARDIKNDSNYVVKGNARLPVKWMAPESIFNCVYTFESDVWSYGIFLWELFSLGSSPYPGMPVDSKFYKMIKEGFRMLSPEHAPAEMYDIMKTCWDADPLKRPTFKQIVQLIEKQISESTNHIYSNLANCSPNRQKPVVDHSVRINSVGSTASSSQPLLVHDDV
# [3] = molecular target: High affinity nerve growth factor receptor (Homo sapiens, UniProt P04629); experiment: Inhibition of wild type partial length human TRKA (G475 to G790 residues) expressed in mammalian expression system using Ulight-p70S6K peptide substrate incubated for 90 mins in presence of ATP by HTRF assay
# High affinity nerve growth factor receptor, sequence (P04629 whole entry, the tested form may be a part): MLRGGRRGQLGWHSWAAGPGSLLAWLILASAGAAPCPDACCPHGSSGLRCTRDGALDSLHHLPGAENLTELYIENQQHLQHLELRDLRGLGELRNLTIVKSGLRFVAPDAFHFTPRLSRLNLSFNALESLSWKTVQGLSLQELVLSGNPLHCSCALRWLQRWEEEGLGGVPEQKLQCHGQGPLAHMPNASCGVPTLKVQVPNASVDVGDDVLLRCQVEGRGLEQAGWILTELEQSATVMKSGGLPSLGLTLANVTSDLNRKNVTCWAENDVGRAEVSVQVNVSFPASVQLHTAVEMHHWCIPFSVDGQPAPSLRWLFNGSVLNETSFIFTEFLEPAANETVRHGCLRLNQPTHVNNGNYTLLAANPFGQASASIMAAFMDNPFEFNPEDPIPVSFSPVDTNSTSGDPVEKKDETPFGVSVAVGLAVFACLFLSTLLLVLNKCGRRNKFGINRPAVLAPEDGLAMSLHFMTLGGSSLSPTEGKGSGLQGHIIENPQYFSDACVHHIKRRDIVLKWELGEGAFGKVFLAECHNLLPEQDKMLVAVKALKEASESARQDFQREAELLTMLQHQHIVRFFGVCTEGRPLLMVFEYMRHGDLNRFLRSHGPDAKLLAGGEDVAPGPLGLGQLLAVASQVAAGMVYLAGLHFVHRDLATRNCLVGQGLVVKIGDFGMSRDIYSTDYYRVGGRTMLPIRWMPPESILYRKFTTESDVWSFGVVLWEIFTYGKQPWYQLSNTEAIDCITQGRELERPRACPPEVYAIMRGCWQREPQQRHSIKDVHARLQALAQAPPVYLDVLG
# [4] = Apparent permeability in human Caco-2 cells at 50 uM incubated for 120 mins by LC-MS/MS analysis; format: ADME, cell-based
# [5] = Clearance in Sprague-Dawley rat assessed as hepatic blood flow at 0.73 mg/kg, iv measured upto 24 hrs by LC-MS/MS analysis; format: ADME, organism-based; settings: in vivo
# [6] = Half life in Sprague-Dawley rat at 0.73 mg/kg, iv measured upto 24 hrs by LC-MS/MS analysis; format: ADME, organism-based; settings: in vivo
# [7] = Oral bioavailability in Sprague-Dawley rat at 3.1 mg/kg measured upto 24 hrs by LC-MS/MS analysis; format: ADME, organism-based; settings: in vivo
# [8] = Solubility of compound in SGF by HPLC assay; format: physicochemical
# [9] = Volume of distribution at steady state in Sprague-Dawley rat at 0.73 mg/kg, iv measured upto 24 hrs by LC-MS/MS analysis; format: ADME, organism-based; settings: in vivo, read-out: Vdss
# [10] = Solubility of compound in FaSSIF by HPLC assay; format: physicochemical
# [11] = Cmax in Sprague-Dawley rat at 3.1 mg/kg, po measured upto 24 hrs by LC-MS/MS analysis; format: ADME, organism-based; set-up: time < 24 hrs, dose 3.1 mg/kg, route po; settings: in vivo
# [12] = AUC in Sprague-Dawley rat at 3.1 mg/kg, po measured upto 24 hrs by LC-MS/MS analysis; format: ADME, organism-based; set-up: time < 24 hrs, dose 3.1 mg/kg, route po; settings: in vivo
# Cytochrome P450 3A4 = Cytochrome P450 3A4 (Homo sapiens, UniProt P08684); experiment: Inhibition of human liver microsomes CYP3A4 using midazolam or testosterone as substrate in presence of NADPH regenerating system by LC-MS/MS analysis; set-up: species or system Microsome
# Cytochrome P450 3A4, sequence (P08684 whole entry): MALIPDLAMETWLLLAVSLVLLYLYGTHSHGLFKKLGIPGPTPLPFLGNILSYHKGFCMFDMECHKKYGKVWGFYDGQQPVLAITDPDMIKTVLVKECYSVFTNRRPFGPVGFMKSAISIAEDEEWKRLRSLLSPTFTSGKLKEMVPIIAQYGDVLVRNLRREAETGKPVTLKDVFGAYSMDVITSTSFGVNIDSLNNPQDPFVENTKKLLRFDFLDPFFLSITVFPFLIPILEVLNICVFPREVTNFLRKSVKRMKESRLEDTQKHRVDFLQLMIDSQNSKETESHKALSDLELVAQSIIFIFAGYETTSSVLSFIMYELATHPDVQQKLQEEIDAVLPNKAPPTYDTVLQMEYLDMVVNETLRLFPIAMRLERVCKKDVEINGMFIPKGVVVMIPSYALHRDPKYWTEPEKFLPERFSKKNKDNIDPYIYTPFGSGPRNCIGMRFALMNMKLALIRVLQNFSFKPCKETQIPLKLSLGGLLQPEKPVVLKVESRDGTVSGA
# Mus musculus = experiment: In vivo inhibition of ERK phosphorylation in human UMUC14 cells xenografted with NSG mouse at 100 mg/kg, po measured after 2 hrs by MSD assay; format: functional, organism-based
# [13] = molecular target: Fibroblast growth factor receptor 2 (Homo sapiens, UniProt P21802); experiment: Inhibition of N-terminal GST tagged recombinant human FGFR2 (400 to 821 residues) expressed in an Sf9 infected baculovirus expression system using biotin-EQEDEPEGDYFEWLE-amide as substrate preincubated for 5 to 10 mins followed by substrate addition and measured after 1 hr by HTRF assay
# Fibroblast growth factor receptor 2, sequence (P21802 whole entry, the tested form may be a part): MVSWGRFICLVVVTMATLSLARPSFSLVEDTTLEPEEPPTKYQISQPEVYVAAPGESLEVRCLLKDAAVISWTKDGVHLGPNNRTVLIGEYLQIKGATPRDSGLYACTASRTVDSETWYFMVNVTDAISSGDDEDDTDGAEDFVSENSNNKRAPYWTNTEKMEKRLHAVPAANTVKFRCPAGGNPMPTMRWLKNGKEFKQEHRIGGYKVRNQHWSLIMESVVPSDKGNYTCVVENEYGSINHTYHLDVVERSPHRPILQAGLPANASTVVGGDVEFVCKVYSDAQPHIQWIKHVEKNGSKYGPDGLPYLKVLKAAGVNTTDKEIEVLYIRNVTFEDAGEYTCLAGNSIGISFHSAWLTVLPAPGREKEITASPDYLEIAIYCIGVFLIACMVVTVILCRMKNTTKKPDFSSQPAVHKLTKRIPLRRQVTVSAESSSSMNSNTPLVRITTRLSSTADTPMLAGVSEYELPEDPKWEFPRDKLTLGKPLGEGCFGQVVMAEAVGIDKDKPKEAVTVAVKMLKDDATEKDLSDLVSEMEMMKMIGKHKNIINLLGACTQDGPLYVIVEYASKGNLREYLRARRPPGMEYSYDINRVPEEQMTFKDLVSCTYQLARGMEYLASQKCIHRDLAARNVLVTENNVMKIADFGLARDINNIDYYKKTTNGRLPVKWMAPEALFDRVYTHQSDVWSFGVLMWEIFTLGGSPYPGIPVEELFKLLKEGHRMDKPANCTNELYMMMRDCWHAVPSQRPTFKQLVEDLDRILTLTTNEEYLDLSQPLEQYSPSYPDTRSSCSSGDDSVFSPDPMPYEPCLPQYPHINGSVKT
# [14] = molecular target: Fibroblast growth factor receptor 4 (Homo sapiens, UniProt P22455); experiment: Inhibition of recombinant human FGFR4 (460 to 802 residues) using biotin-EQEDEPEGDYFEWLE-amide as substrate preincubated for 5 to 10 mins followed by substrate addition and measured after 1 hr by HTRF assay
# Fibroblast growth factor receptor 4, sequence (P22455 whole entry, the tested form may be a part): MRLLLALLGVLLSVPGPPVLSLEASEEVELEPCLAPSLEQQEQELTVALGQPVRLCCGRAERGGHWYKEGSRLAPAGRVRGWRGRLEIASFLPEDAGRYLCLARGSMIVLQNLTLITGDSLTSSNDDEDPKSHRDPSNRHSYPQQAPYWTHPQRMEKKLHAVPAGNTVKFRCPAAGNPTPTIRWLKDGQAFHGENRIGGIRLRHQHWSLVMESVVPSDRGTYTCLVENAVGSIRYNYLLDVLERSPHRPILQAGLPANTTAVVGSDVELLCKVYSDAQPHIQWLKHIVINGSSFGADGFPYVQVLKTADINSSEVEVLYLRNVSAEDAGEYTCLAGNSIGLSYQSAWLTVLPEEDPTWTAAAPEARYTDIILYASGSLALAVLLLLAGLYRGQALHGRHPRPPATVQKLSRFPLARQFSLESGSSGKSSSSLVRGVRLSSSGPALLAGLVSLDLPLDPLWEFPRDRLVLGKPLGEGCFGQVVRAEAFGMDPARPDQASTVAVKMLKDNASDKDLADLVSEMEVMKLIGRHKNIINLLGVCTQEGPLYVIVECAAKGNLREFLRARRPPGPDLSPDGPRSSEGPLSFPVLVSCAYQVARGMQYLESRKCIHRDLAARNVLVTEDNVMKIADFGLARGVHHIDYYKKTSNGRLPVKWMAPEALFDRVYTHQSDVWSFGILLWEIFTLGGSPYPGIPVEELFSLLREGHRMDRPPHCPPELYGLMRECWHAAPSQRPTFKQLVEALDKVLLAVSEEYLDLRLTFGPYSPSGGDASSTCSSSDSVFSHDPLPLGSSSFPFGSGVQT
# CYP3A4 = CYP3A4 (Homo sapiens, UniProt P08684); experiment: Inhibition of human liver microsomes CYP3A4 at 5 uM using midazolam or testosterone as substrate in presence of NADPH regenerating system by LC-MS/MS analysis relative to control; format: ADME, Microsome; settings: probe midazolam or testosterone
# CYP3A4, sequence (P08684 whole entry): as the sequence (P08684 whole entry) above
SMILES,IC50 [1] [nM],IC50 [2] [nM],IC50 [3] [nM],"Papp at 2 h, 50 µM [4] [×10⁻⁶ cm/s]",IC50 (Cytochrome P450 3A4) [nM],further results
CNC(=O)c1cc(-c2cnc3cc(-c4cnn(C)c4)c(O[C@H]4CCOC4)nn23)c(F)c(C(F)F)c1,800,619,443,–,–,–
CNC(=O)c1cc(F)c(F)c(-c2cnc3cc(-c4cnn(C)c4)c(O[C@H]4CCOC4)nn23)c1,1740,1450,285,5.7,3900,QH [5]: 3.3%; half-life [6]: 5.3 h; bioavailability [7]: 54%; solubility [8]: > 400 µg/mL; Vd [9]: 0.35 L/kg; solubility [10]: 118 µg/mL; Cmax [11]: 6.17 µM; AUC at 24 h [12]: 33.6 µM·h
CNC(=O)c1cncc(-c2cnn3cc(-c4cnn(C(C)C)c4)c(O[C@H]4CCOC4)nc23)c1,–,–,–,1.5,9000,Activity (Mus musculus): Active; solubility [8]: > 400 µg/mL; solubility [10]: 17 µg/mL
CNC(=O)c1cc(C)c(F)c(-c2cnc3cc(-c4cnn(C)c4)c(O[C@H]4CCOC4)nn23)c1,1390,1660,293,–,–,–
[2H]C([2H])([2H])NC(=O)c1cncc(-c2cnn3cc(-c4ccn(C(C)C)n4)c(N[C@H]4CCOC4)nc23)c1,–,–,–,–,–,IC50 [13]: 0.2 nM
CCNC(=O)c1cncc(-c2cnn3cc(-c4cnn(CC)c4)c(O[C@H]4CCOC4)nc23)c1,–,–,–,0.6,> 25000,–
[2H]C([2H])([2H])NC(=O)c1cncc(-c2cnn3cc(-c4cnn(C(C)C)c4)c(O[C@H]4CCOC4)nc23)c1,–,–,–,2,> 25000,QH [5]: 35%; half-life [6]: 1.7 h; bioavailability [7]: 82%; solubility [8]: 679 µg/mL; Vd [9]: 1.6 L/kg; solubility [10]: 18 µg/mL; Cmax [11]: 2.3 µM; AUC at 24 h [12]: 5.11 µM·h; IC50 [14]: 145 nM
CNC(=O)c1cncc(-c2cnc3cc(-c4cnn(C)c4)c(OC4CCOC4)nn23)c1 (configuration not stated),370,284,7300,–,> 5000,inhibition at 5 µM (CYP3A4): 0%
CNC(=O)c1cncc(-c2cnn3cc(-c4cnn(C)c4)c(OC4CCOC4)nc23)c1 (racemic),–,–,–,0.2,> 5000,inhibition at 5 µM (CYP3A4): 15%
CNC(=O)c1cccc(-c2cnc3cc(-c4cnn(C)c4)c(OC)nn23)c1,38,–,58,–,–,–
CNC(=O)c1cc(C)cc(-c2cnc3cc(-c4cnn(C(C)C)c4)c(O[C@H]4CCOC4)nn23)c1,126,22,363,–,–,–
CNC(=O)c1cccc(-c2cnc3cc(-c4cnn(C)c4)c(O[C@H]4CCOC4)nn23)c1,66,82,118,–,–,–
CNC(=O)c1ccc(F)c(-c2cnc3cc(-c4cnn(C)c4)c(OC)nn23)c1,348,180,11,–,–,–
